Experimental data as given in patent publication US20230044787A1, “TRICYCLE DIHYDROIMIDAZOPYRIMIDONE DERIVATIVE, PREPARATION METHOD THEREOF, PHARMACEUTICAL COMPOSITION AND USE THEREOF” (priority 2019, published 2023).

molecular target: T1, Lp-PLA2 (Homo sapiens, UniProt Q13093); assay: Lipoprotein-associated phospholipase A2 (Lp-PLA2) human plasma assay (Thio-PAF assay); assay type: biochemical; conditions: Comparison of activity data (I); pooled human plasma, 2-thio-PAF substrate, 30-min pre-incubation
T1 construct: aliquoted and thawed 40 μL of pooled human plasma was previously added; from tissue; host or cells: pooled human plasma
T1 sequence (Q13093 22-441): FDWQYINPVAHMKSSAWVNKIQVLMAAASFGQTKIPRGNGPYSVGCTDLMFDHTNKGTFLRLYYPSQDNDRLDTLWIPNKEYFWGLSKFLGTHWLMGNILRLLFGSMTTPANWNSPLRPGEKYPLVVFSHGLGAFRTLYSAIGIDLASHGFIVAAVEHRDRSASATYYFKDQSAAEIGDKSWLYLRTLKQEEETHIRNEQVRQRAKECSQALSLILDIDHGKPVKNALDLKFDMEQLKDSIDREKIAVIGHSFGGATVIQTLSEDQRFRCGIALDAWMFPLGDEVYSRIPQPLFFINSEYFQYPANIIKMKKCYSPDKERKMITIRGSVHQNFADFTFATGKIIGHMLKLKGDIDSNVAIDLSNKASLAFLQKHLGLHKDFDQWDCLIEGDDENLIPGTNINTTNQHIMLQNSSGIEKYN

| IC50 | SMILES |
| --- | --- |
| 75.3 nM | O=c1nc(OCc2cc(F)c(F)c(F)c2)cc2n1C[C@@H]1COCCN21 [Example 123 in WO2016011930A1, reference compound] |

same assay, conditions: Lp-PLA2 human plasma assay (Thio-PAF), pooled human plasma, 30-min pre-incubation at room temperature

| IC50 | SMILES |
| --- | --- |
| 5.9 nM | O=c1nc(OCCc2ccc(Oc3ccnc(C(F)(F)F)c3)cc2)cc2n1C[C@]13CO[C@H](CN21)C3 [Example 100, (3S,11aR)-7-(4-(2-(trifluoromethyl)pyridin-4-yloxy)phenethoxy)-3,4-dihydro-1H,9H,11H-3,11a-methanopyrimido[6′-,1′:2,3] imidazo[5,1-c][1,4]oxazin-9-one] |
| 15.1 nM | N#Cc1cc(CCOc2cc3n(c(=O)n2)C[C@]24CO[C@H](CN32)C4)ccc1Oc1ccnc(C(F)(F)F)c1 [Example 101, 5-(2-(((3S,11aR)-9-oxo-3,4-dihydro-1H,9H,11H-3,11a-methanopyrimido[6′-,1′:2,3]imidazo[5,1-c][1,4]oxazin-7-yl)oxy)ethyl)-2-((2-(trifluoromethyl)pyridin-4-yl)oxy)benzonitrile] |
| 7.6 nM | N#Cc1c(OCc2cc(F)c(Oc3ccnc(C(F)(F)F)c3)c(F)c2)nc(=O)n2c1N1C[C@@H]3C[C@]1(CO3)C2 [Example 102, (3S,11aR)-7-((3,5-difluoro-4-((2-(trifluoromethyl)pyridin-4-yl)oxy)benzyl)oxy)-6-cyano-3,4-dihydro-1H,9H,11H-3,11a-methanopyrimido[6′,1′:2,3] imidazo[5,1-c][1,4]oxazin-9-one] |
| 6.2 nM | N#Cc1cc(COc2cc3n(c(=O)n2)CC24CC(CN32)C4)ccc1F [Example 103] |
| 8.6 nM | CCc1c(OCc2cc(F)c(Oc3ccnc(C(F)(F)F)c3)c(F)c2)nc(=O)n2c1N1C[C@@H]3C[C@]1(CO3)C2 [Example 104, (3S,11aR)-7-((3,5-difluoro-4-((2-(trifluoromethyl)pyridin-4-yl)oxy)benzyl)oxy)-6-ethyl-3,4-dihydro-1H,9H,11H-3,11a-methanopyrimido[6′,1′:2,3] imidazo[5,1-c][1,4]oxazin-9-one] |
| 10.8 nM | O=c1nc(OCc2ccc(Oc3ccnc(C(F)(F)F)c3)cc2F)cc2n1CC13CC(CN21)C3 [Example 105, 3-((2-fluoro-4-((2-(trifluoromethyl)pyridin-4-yl)oxy)benzyl)oxy)-7,8-dihydro-1H,6H,9H-7,8a-methanopyrrolo[1′,2′:3,4] imidazo[1,2-c]pyrimidin-1-one] |
| 1 nM | COc1c(OCc2cc(F)c(Oc3ccnc(C(F)(F)F)c3)c(F)c2)nc(=O)n2c1N1C[C@@H]3C[C@]1(CO3)C2 [Example 106, (3S,11aR)-7-((3,5-difluoro-4-((2-(trifluoromethyl)pyridin-4-yl)oxy)benzyl)oxy)-6-methoxy-3,4-dihydro-1H,9H,11H-3,11a-methanopyrimido[6′,1′:2,3] imidazo[5,1-c][1,4]oxazin-9-one] |
| 9.5 nM | CC(C)c1c(OCc2cc(F)c(Oc3ccnc(C(F)(F)F)c3)c(F)c2)nc(=O)n2c1N1C[C@@H]3C[C@]1(CO3)C2 [Example 107, (3S,11aR)-7-((3,5-difluoro-4-((2-(trifluoromethyl)pyridin-4-yl)oxy)benzyl)oxy)-6-isopropyl-3,4-dihydro-1H,9H,11H-3,11a-methanopyrimido[6′,1′:2,3] imidazo[5,1-c][1,4]oxazin-9-one] |
| 5 nM | Cc1c(OCc2ccc(Oc3ccnc(C(F)(F)F)c3)cc2)nc(=O)n2c1N1C[C@@H]3C[C@]1(CO3)C2 [Example 108, (3S,11aR)-7-((4-((2-(trifluoromethyl)pyridin-4-yl)oxy)benzyl)oxy)-6-methyl-3,4-dihydro-1H,9H,11H-3,11a-methanopyrimido[6′,1′:2,3] imidazo[5,1-c][1,4]oxazin-9-one] |
| 14 nM | O=c1nc(OCc2ccc(Oc3ccnc(C(F)(F)F)c3)cc2)cc2n1CC13CC(CN21)C3 [Example 109, 3-((4-((2-(trifluoromethyl)pyridin-4-yl)oxy)benzyl)oxy)-7,8-dihydro-1H,6H,9H-7,8a-methanopyrrolo[1′,2′:3,4] imidazo[1,2-c]pyrimidin-1-one] |
| 5.3 nM | N#Cc1cc(COc2cc3n(c(=O)n2)C[C@@]24CO[C@@H](CN32)C4)ccc1Oc1ccnc(C(F)(F)F)c1 [Example 110, 5-((((3R,11aS)-9-oxo-3,4-dihydro-1H,9H,11H-3,11a-methanopyrimido[6′,1′:2,3]imidazo[5,1-c][1,4]oxazin-7-yl)oxy)methyl)-2-((2-(trifluoromethyl)pyridin-4-yl)oxy)benzonitrile] |
| 11.4 nM | O=c1nc(OCCc2ccc(Oc3ccnc(C(F)(F)F)c3)cc2)cc2n1CC13CC(CN21)C3 [Example 111, 3-(4-((2-(trifluoromethyl)pyridin-4-yl)oxy)phenethoxy)-7,8-dihydro-1H,6H,9H-7,8a-methanopyrrolo[1′,2′:3,4] imidazo[1,2-c]pyrimidin-1-one] |
| 5.1 nM | O=c1nc(OCc2cc(F)c(Oc3ccnc(C(F)(F)F)c3)c(F)c2)cc2n1CC13CCC(COC1)N23 (stereo not drawn) [Example 112, 7-((3,5-difluoro-4-((2-(trifluoromethyl)pyridin-4-yl)oxy)benzyl)oxy)-3,4-dihydro-1H,9H,11H-4,11a-ethanopyrimido[6′,1′:2,3] imidazo[5,1-c][1,4]oxazin-9-one] |
| 5.7 nM | O=c1nc(OCc2ccc(Oc3ccnc(C(F)(F)F)c3)c(F)c2)cc2n1CC13CC(CN21)C3 [Example 113, 3-((3-fluoro-4-((2-(trifluoromethyl)pyridin-4-yl)oxy)benzyl)oxy)-7,8-dihydro-1H,6H,9H-7,8a-methanopyrrolo[1′,2′:3,4] imidazo[1,2-c]pyrimidin-1-one] |
| 5.7 nM | COc1c(OCc2cc(F)c(F)c(F)c2)nc(=O)n2c1N1C[C@@H]3C[C@]1(CO3)C2 [Example 114, (3S,11aR)-7-((3,4,5-trifluorobenzyl)oxy)-6-methoxy-3,4-dihydro-1H,9H,11H-3,11a-methanopyrimido[6′,1′:2,3] imidazo[5,1-c][1,4]oxazin-9-one] |
| 5.2 nM | COc1c(OCc2ccc(F)c(F)c2)nc(=O)n2c1N1C[C@@H]3C[C@]1(CO3)C2 [Example 115, (3S,11aR)-7-((3,4-difluorobenzyl)oxy)-6-methoxy-3,4-dihydro-1H,9H,11H-3,11a-methanopyrimido[6′,1′:2,3] imidazo[5,1-c][1,4]oxazin-9-one] |
| 9.1 nM | O=c1nc(OCc2ccc(Oc3ccc(C(F)(F)F)nc3)c(F)c2)cc2n1CC13CC(CN21)C3 [Example 117, 3-((3-fluoro-4-((6-(trifluoromethyl)pyridin-3-yl)oxy)benzyl)oxy)-7,8-dihydro-1H,6H,9H-7,8a-methanopyrrolo[1′,2′:3,4] imidazo[1,2-c]pyrimidin-1-one] |
| 6 nM | O=c1nc(OCc2ccc(Oc3ccnc(C(F)(F)F)c3)c(F)c2)cc2n1CC13CCC(CC1)N23 [Example 118, 3-((3-fluoro-4-((2-(trifluoromethyl)pyridin-4-yl)oxy)benzyl)oxy)-7,8-dihydro-1H,6H,9H-6,8a-ethanopyrrolo[1′,2′:3,4] imidazo[1,2-c]pyrimidin-1-one] |
| 8.2 nM | Cc1cc(Oc2ccc(COc3cc4n(c(=O)n3)CC35CC(CN43)C5)cc2F)ccn1 [Example 119, 3-((3-fluoro-4-((2-methyl-pyridin-4-yl)oxy)benzyl)oxy)-7,8-dihydro-1H,6H,9H-7,8a-methanopyrrolo[1′,2′:3,4] imidazo[1,2-c]pyrimidin-1-one] |
| 8.7 nM | Cc1cc(Oc2ccc(COc3cc4n(c(=O)n3)CC35CCC(CC3)N45)cc2F)ccn1 [Example 120, 3-((3-fluoro-4-((2-methyl-pyridin-4-yl)oxy)benzyl)oxy)-7,8-dihydro-1H,6H,9H-6,8a-ethanopyrrolo[1′,2′:3,4] imidazo[1,2-c]pyrimidin-1-one] |
| 8.6 nM | O=c1nc(OCc2ccc(Oc3ccc(C(F)(F)F)nc3)c(F)c2)cc2n1CC13CCC(CC1)N23 [Example 121, 3-((3-fluoro-4-((6-(trifluoromethyl)pyridin-3-yl)oxy)benzyl)oxy)-7,8-dihydro-1H,6H,9H-6,8a-ethanopyrrolo[1′,2′:3,4] imidazo[1,2-c]pyrimidin-1-one] |
| 9.4 nM | O=c1nc(OCc2ccc(Oc3cnc(C(F)(F)F)nc3)c(F)c2)cc2n1CC13CC(CN21)C3 [Example 122, 3-((3-fluoro-4-((2-(trifluoromethyl)pyrimidin-5-yl)oxy)benzyl)oxy)-7,8-dihydro-1H,6H,9H-7,8a-methanopyrrolo[1′,2′:3,4] imidazo[1,2-c]pyrimidin-1-one] |
| 4.4 nM | O=c1nc(OCc2cc(F)c(Oc3ccnc(C(F)(F)F)c3)c(F)c2)cc2n1C[C@]13CC[C@H](CN21)C3 [Example 123] |
| 6.1 nM | O=c1nc(OCc2ccc(Oc3cccc(C(F)(F)F)c3)c(F)c2)cc2n1CC13CC(CN21)C3 [Example 124, 3-((3-fluoro-4-(3-(trifluoromethyl)phenoxy)benzyl)oxy)-7,8-dihydro-1H,6H,9H-7,8a-methanopyrrolo[1′,2′:3,4] imidazo[1,2-c]pyrimidin-1-one] |
| 3 nM | O=c1nc(OCc2ccc(Oc3ccc(Cl)c(C(F)(F)F)c3)c(F)c2)cc2n1CC13CC(CN21)C3 [Example 125, 3-((3-fluoro-4-(4-chloro-3-(trifluoromethyl)phenoxy)benzyl)oxy)-7,8-dihydro-1H,6H,9H-7,8a-methanopyrrolo[1′,2′:3,4] imidazo[1,2-c]pyrimidin-1-one] |
| 5 nM | O=c1nc(OCc2ccc(Oc3cccc(C(F)(F)F)c3)c(F)c2)cc2n1CC13CCC(CC1)N23 [Example 126, 3-((3-fluoro-4-(3-(trifluoromethyl)phenoxy)benzyl)oxy)-7,8-dihydro-1H,6H,9H-6,8a-ethanopyrrolo[1′,2′:3,4] imidazo[1,2-c]pyrimidin-1-one] |
